US11124488B2, “Preparation of 2-([1,2,3]triazol-2-yl)-benzoic acid derivatives” (IDORSIA PHARMACEUTICALS LTD, priority 2017, dated 2021)

Row | melting point | Structure (SMILES)
1 | 178 °C | COc1ccc(-n2nccn2)c(C(=O)N2CCC[C@@]2(C)C(=O)O)c1 [Reference Example 4.2, (S)-1-(5-methoxy-2-(2H-1,2,3-triazol-2-yl)benzoyl)-2-methylpyrrolidine-2-carboxylic acid]
2 | 185 °C | COc1ccc(-n2nccn2)c(C(=O)N2CCC[C@@]2(C)C(=O)Nc2ccc(Cl)c(C)c2N)c1 [Reference Example 4.3, (S)—N-(2-amino-4-chloro-3-methylphenyl)-1-(5-methoxy-2-(2H-1,2,3-triazol-2-yl)benzoyl)-2 methylpyrrolidine-2-carboxamide]
